Test results as given in patent US20260183305A1, “METHYLENE BLUE FOR USE IN THERAPY OF HEPATITIS B AND/OR HEPATITIS D INFECTION” (priority 2022, published 2026).
Entries after “also recorded” stand apart in the source; their conditions may differ.

How the values were obtained:
[1] = test system: HBV surface antigen (HBsAg); assay: HBsAg measurement by ELISA in supernatant of HDV infected HepNB2.7 cells; assay type: cell-based, Hepatitis B Virus
Description: (§1) HepG2-NTCP and HepNB2.7 cells (plated at 10×10^3 cells/well) were infected with 10 or 50 MOI of HDV using PEG (polyethylene glycol) 4% overnight as previously described (Alfaiate D, Lucifora J et al.; cf. above). MB (2.5 or 1.25 μg/ml) was added 16 hrs post HDV infection for 5 h and cells were incubated at room temperature in the dark. Three and six days post infection, RNA was extracted and HDV RNA level was monitored by RT-qPCR in order to determine HDV replication as described below. For HepNB2.7, the level of HBsAg in the supernatant were measured as described below.
For HepNB2.7, the level of HBsAg in the supernatant were measured at both time points by ELISA (Enzyme-Linked Immosorbent Assay, ABBOTT PRISM® HBsAg) according to the protocol of the manufacturer.
(§2) HepG2-NTCP or HepNB2.7 cells were infected with different titers of HDV (10, 50, 100 MOI) and treated with 2.5 or 1.25 μg/ml of MB for 5 hours. Cells were analyzed at day 3 or day 6 post-infection and HDV replication was assessed by RT-PCR. For HepNB2.7, the level of HBsAg in the supernatant were measured at both time points.
In a second experiment the secretion of the HBV surface antigen (HBsAg) was measured in the supernatant of cells infected with 10, 50 or 100 MOI and treated with MB (2.5 or 1.25 μg/ml).

[2] = 5 mg/ml solution for injection; cited from earlier work
[3] = test system: Influenza N1H1 virus; settings: in vitro, hermetically closed box; cited from earlier work
[4] = test system: HepNB2.7 cells; assay: MTT cell viability assay, cytotoxicity of MB on HepNB2.7; assay type: cell-based; settings: HepNB2.7, MTT
[5] = test system: HDV; assay: MB HDV inhibition assay (HDV RNA by RT-qPCR) on HepG2-NTCP cells; assay type: cell-based, Hepatitis D Virus; settings: MB 2.5 or 1.25 μg/mL; for HDV RNA concentration: HepG2-NTCP
Description: (§3) HepG2-NTCP or HepNB2.7 cells were infected with different titers of HDV (10, 50 MOI) and treated with 2.5 or 1.25 μg/ml of MB for 5 hours.
as §1
(§4) Total intracellular RNA was extracted using the Nucleospin RNA Kit (Macherey-Nagel AG). cDNA was synthesized from 100 ng total RNA using Superscript II and random hexamer primers (Roche Diagnosis). Quantification of HDV was performed by qRT-PCR as described (Alfaiate D, Lucifora J et al), using the primers described by Scholtes & colleagues (Scholtes C, Icard V, Amiri M et al; “Standardized one-step real-time reverse transcription-PCR assay for universal detection and quantification of hepatitis delta virus from clinical samples in the presence of a heterologous internal-control RNA.” J Clin Microbiol 2012;50:2126-2128.) and EEF1A1 as housekeeping gene.
as §2
The inhibitory effect of MB on HDV replication on HepG2-NTCP cells was investigated. Cells infected with either 10 or 50 MOI of virus were treated with MB (2.5 or 1.25 μg/ml) and HDV replication was assessed at 3 days (A) or 6 days (B) post infection.

[6] = after oral administration; cited from earlier work
[7] = transplacental exposure, mouse; cited from earlier work
[8] = test system: HDV; assay: MB HDV inhibition assay (HDV RNA by RT-qPCR) on HepNB2.7 cells; assay type: cell-based, Hepatitis D Virus
Description: as §3, §1, §4, §2
The inhibitory effect of MB on HDV replication on HepNB2.7 cells was investigated. In a first experiment cells infected with either 10 or 50 MOI were treated with MB (2.5 or 1.25 μg/ml) and HDV replication was assessed at 3 days, or 6 days, post infection.

[9] = Brazilian children, long periods of time; cited from earlier work
[10] = test system: SARS-COV-2; settings: in vitro, hermetically closed box; cited from earlier work

CN(C)c1ccc2nc3ccc(N(C)C)cc3[s+]c2c1.[Cl-] [MB, [7-(dimethylamino)phenothiazin-3-ylidene]-dimethylazanium, chloride]
secretion of the HBV surface antigen (HBsAg) in the supernatant ([1]; HepNB2.7 infected with 10, 50 or 100 MOI HDV, MB 2.5 or 1.25 μg/ml, all conditions tested): diminished secretion; also recorded: clear-cut dose/response relationship | antiviral effect of MB over time ([1]; results on day 3 and 6): accumulates over time | compatibility with 0.9% saline solution [2]: not compatible | compatibility with 5% glucose or 5% dextrose solution [2]: compatible | antiviral efficacy in the total dark [3]: strong antiviral efficacy | long-term cytotoxic effect (percentage of viability) ([4]; 3 days after incubation with different concentrations of MB): significant toxicity | cytotoxic effect of MB in the presence of light as compared to dark ([4]; dark vs photoactivated under visible light, 3 days after incubation): not significantly enhanced | HDV RNA concentration ([5]; 10 MOI): too low to distinguish the antiviral impact of MB | HDV RNA concentration ([5]; 50 MOI, 3 and 6 days post infection): clear dose response relationship | antiviral effect of MB against HDV infected HepG2-NTCP cells ([5]; physiological drug concentrations): significant antiviral effect | bioavailability [6]: 72% | elimination half-life [6]: 18 h | teratogenicity [7]: teratogenic | HDV replication signal ([8]; HepNB2.7, 10 MOI, day 3 and 6): weak signal | effect of MB on viral reproduction (HDV replication) ([8]; HepNB2.7, 50 MOI, day 6 post infection, MB 2.5 or 1.25 μg/ml): dose related effect | viral markers under long-term treatment (extrapolated) ([8]; long-term treatment (weeks instead of days), cell lines, no data shown): complete disappearance of viral markers | dose tolerated very well [9]: 20-50 mg/kg per day | antiviral efficacy in the total dark [10]: strong antiviral efficacy
